Experiment [1] deals with 2-phenyl-1,4-benzoquinone-induced writhing. Description: 2-phenyl-1,4-benzoquinone-induced writhing test (analgesia). Format: in vivo, mice. The settings on record: Mus musculus, po. The text has this: Compounds of the present invention are also useful as analgesic agents due to their ability to alleviate pain in mammals. […] Exptl. Biol. Med., 95, 729 (1957)].
On the technique in general: Writhing tests count abdominal constrictions after an irritant is injected.

Experiment [2] has as its system carrageenin induced rat paw edema. Kind of experiment: carrageenin induced rat paw edema anti-inflammatory assay. In kind it is in vivo. The settings on record: for inhibition at 20 mg/kg: read-out: Time Response at 20 mg/kg % Inhibition; for ED50: po; for inhibition at 25 mg/kg: read-out: Time Response at 25 mg/kg % Inhibition. The source says:
The compounds of the present invention are useful as anti-inflammatory agents due to their ability to suppress inflammation in mammals. […] Exptl. Biol. Med., III 544 (1962), J. Pharmacol. Exp. 141 […]] .

Where [3] appears, read: analgesic data, read-out: ED50 (p.o.).
Setting [4] is: pretreatment 6 hrs, read-out: ED50.

Like-named read-outs stand apart in the source and are kept apart here.

The term ED50 denotes the dose at which the effect has come halfway, by size or by number of responders.

Take `O=C(CCCc1ccc2c(c1)C(=O)c1sccc1CO2)OCC(O)CO` (racemic) [1-[(4,10-Dihydro-10-oxothieno[3,2-c][1]-benzoxepin-8-yl)-4-butyryl] glyceride]: the ED50 in experiment [1] (setting [3]) was 9.4 mg/kg.
On to `CC(CCC(=O)O)c1ccc2c(c1)C(=O)c1sccc1CO2` (racemic) [(±)-4-(4,10-Dihydro-10-oxothieno[3,2-c][1]benzoxepin-8-yl)pentanoic acid], for which the results for the inhibition at 20 mg/kg in experiment [2] (pretreatment time 1 hr.), in experiment [2] (pretreatment time 2 hrs.) and in experiment [2] (pretreatment time 4 hrs) were 25%, 23% and 28%, respectively.
For `CC1(C)OCC(COC(=O)CCCc2ccc3c(c2)C(=O)c2sccc2CO3)O1` (racemic) [(±)[2,2-Dimethyl-1,3-dioxolan-4-yl]methyl 4-[4,10-dihydro-10-oxothieno[3,2-c][1]benzoxepin-8-yl]butyrate], the ED50 in experiment [1] (setting [3]) came to 11.2 mg/kg; in experiment [2] (setting [4]), 14.5 mg/kg. The inhibition at 20 mg/kg in experiment [2] (pretreatment time 2 hrs.) came to 20%; in experiment [2] (pretreatment time 6 hrs), 61%; in experiment [2] (pretreatment time 18 hrs), 32%; in experiment [2] (pretreatment time 24 hrs) it was 41%.
Take `CC(C)OC(=O)CCCc1ccc2c(c1)C(=O)c1sccc1CO2` [4-(4,10-Dihydro-10-oxothieno[3,2-c][1]benzoxepin-8-yl)-butyric acid isopropyl ester]: the ED50 is 8.5 mg/kg in experiment [1] (setting [3]) and 21.8 mg/kg in experiment [2] (pretreatment 2 hrs, estimated, read-out: Estimated ED50). The inhibition at 20 mg/kg in experiment [2] (pretreatment time 2 hrs.) turned out to be 31%; in experiment [2] (pretreatment time 6 hrs), 71%; in experiment [2] (pretreatment time 18 hrs), 57%; in experiment [2] (pretreatment time 24 hrs) it was 26%.
`COC(=O)CCCc1ccc2c(c1)C(=O)c1sccc1CO2` [4-(4,10-Dihydro-10-oxothieno[3,2-c][1]benzoxepin-8-yl)-butyric acid methyl ester]: the median effective dose (ED50) in experiment [1] (setting [3]) turned out to be 10.8 mg/kg; in experiment [2] (setting [4]) it was 10.3 mg/kg. For the same molecule, the inhibition at 20 mg/kg in experiment [2] (pretreatment time 2 hrs.) was found to be 24%; in experiment [2] (pretreatment time 6 hrs) it was 54%; in experiment [2] (pretreatment time 8 hrs), 62%; in experiment [2] (pretreatment time 24 hrs), 16%.
Consider `O=C(O)CCCc1ccc2c(c1)C(=O)c1sccc1CO2` [4-(4,10-dihydro-10-oxothieno[3,2-c][1]benzoxepin-8-yl)-butyric acid], for which the inhibition at 25 mg/kg in experiment [2] (pretreatment time 0.5 hr.) worked out at 49%; in experiment [2] (pretreatment time 1 hr) it was 52%; in experiment [2] (pretreatment time 2 hrs.), 79%; in experiment [2] (pretreatment time 3 hrs), 94%; in experiment [2] (pretreatment time 4 hrs), 95%; in experiment [2] (pretreatment time 6 hrs) it was 67%. The inhibition at 25 mg/kg in experiment [2] (pretreatment time 8 hrs) amounted to 47%. In experiment [2] (1 h, p.o., pretreatment 60 min, read-out: ED50), the ED50 stood at 77.9 mg/kg.
`CCOC(=O)CCCc1ccc2c(c1)C(=O)c1sccc1CO2` [Ethyl 4-[4,10-dihydro-10-oxothieno[3,2-c][1]benzoxepin-8-yl]butyrate]: the ED50 in experiment [1] (setting [3]) turned out to be 8.2 mg/kg. The inhibition at 20 mg/kg in experiment [2] (pretreatment time 2 hrs.) came to 40%; in experiment [2] (pretreatment time 6 hrs) it was 48%; in experiment [2] (pretreatment time 18 hrs) it was 15%; in experiment [2] (pretreatment time 24 hrs), 22%.
Consider `CC1=C(CC(=O)O)c2cc(F)ccc2/C1=C\c1ccc([S+](C)[O-])cc1` (stereo not shown) [sulindac, reference compound], for which the ED50 in experiment [1] (in a similar test, read-out: analgesic ED50) stood at 6.2 mg/kg; in experiment [2] (in a similar test, read-out: anti-inflammatory ED50), 10.7 mg/kg.
Take `CC(C)(C)OC(=O)CCCc1ccc2c(c1)C(=O)c1sccc1CO2` [t-Butyl 4-[4,10-dihydro-10-oxothieno-[3,2-c][1]benzoxepin-8-yl]butyrate]: the inhibition at 20 mg/kg in experiment [2] (pretreatment time 1 hr.) came out at 42%; in experiment [2] (pretreatment time 2 hrs.) it was 49%; in experiment [2] (pretreatment time 4 hrs), 43%.

(Values after EP0118867A2, “Substituted 4,10-dihydro-10-oxothieno benzoxepins, a method of preparing the same and intermediate thereof and their use as medicaments” (HOECHST-ROUSSEL PHARMACEUTICALS INCORPORATED, priority 1983, dated 1984).)
